Source: patent US6172061A, “Pharmaceutical composition for antagonizing CCR5 comprising anilide derivative” (Takeda Chemical Industries, Ltd., priority 1997, dated 2001)

Columns and labels:
[1] = target: T1, human CCR5 (Homo sapiens, UniProt P51681); experiment: inhibition of [^125 I]-RANTES binding to CHO/CCR5 cells (CCR5 antagonistic activity); conditions: Test Compound 1 μM, 100 pM [^125 I]-RANTES, room temperature 30 minutes; for inhibition at 1 µM: read-out: Inhibition Rate (%) to CCR5 binding
T1 construct: expressed in transfected cells; host or cells: CHO-K1 (plasmid pCKR5 in pcDNA3.1, geneticin-selected CHO/CCR5 cells)
T1 sequence (P51681 whole entry): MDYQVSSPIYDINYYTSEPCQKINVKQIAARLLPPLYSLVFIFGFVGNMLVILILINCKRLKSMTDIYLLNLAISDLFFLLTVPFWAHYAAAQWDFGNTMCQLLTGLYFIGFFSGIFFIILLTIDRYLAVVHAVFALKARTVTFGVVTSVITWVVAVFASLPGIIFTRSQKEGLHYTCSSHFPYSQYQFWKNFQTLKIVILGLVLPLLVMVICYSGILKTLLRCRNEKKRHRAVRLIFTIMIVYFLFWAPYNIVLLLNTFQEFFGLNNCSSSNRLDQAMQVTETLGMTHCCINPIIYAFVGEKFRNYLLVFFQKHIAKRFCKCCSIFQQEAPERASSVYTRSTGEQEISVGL
Experimental: Cloning of CCR5 gene was carried out by PCR (polymerase chain reaction) from human spleen cDNA. With using 0.5 ng of spleen cDNA (Toyobo, QUICK-Clone cDNA) as template, PCR was performed in DNA Thermal Cycler 480 (Perkin-Elmer) (reaction conditions: 30 cycles of 95° C. for 1 minute, 60° C. for 1 minute, and 75° C. for 5 minutes) by adding primer set, 5'-CAGGATCCGATG […]-3' (25 pmol) and 5'-TCTAGATCACAAGCC CACAGATATTTCCTGCTCC-3' (25 pmol), which were designed referring to nucleotide sequence of CCR5 gene reported by Samson et al. (Biochemistry, 35(11), 3362-3367 (1996)) and by using TaKaRa EX Taq (Takara Shuzo). The resultant PCR product was subjected to agarose gel electrophoresis to collect about 1.0 kb DNA fragment, which was subjected to Original TA Cloning Kit (Funakoshi) to carry out cloning of CCR5 gene.
The plasmid obtained in the above (1) was digested with restriction enzymes XbaI (Takara Shuzo) and BamHI (Takara Shuzo) and subjected to agarose gel electrophoresis to collect about 1.0 kb DNA fragment. The DNA fragment was mixed with plasmid pcDNA3.1 (Funakoshi) for expression in animal cells, said plasmid being digested with XbaI and BamHI, and they were ligated with DNA Ligation Kit Ver.2 (Takara Shuzo). The resulting plasmid was subjected to transformation of competent cell of E. coli JM109 (Takara Shuzo) to obtain plasmid pCKR^5.
CHO-K1 cells were grown in 750 ml of tissue culture flask (Becton Dickinson) using Ham's F12 medium (Nihon Pharmaceutical) containing 10% fetal calf serum (Life Tech Oriental) and took off with 0.5 g/L trypsin-0.2 g/L EDTA (Life Tech Oriental). The cells were washed with PBS (Life Tech Oriental), centrifuged (1000 rpm, 5 minutes), and suspended in PBS. With using Gene Pulser (Bio-Rad Laboratories), DNA was introduced into the cells under the conditions shown below. That is, to the cuvette of 0.4 cm gap were added 8×10^6 cells and 10 μg of plasmid pCKR^5 for expression of human CCR5, and electroporation was carried out under 0.25 kV of voltage and 960 μF of capacitance. The cells were transferred into Ham's F12 medium (Nihon Pharmaceutical) containing 10% fetal calf serum, and cultivated for 24 hours. The cells were again took off and centrifuged, and suspended in Ham's F12 medium (Nihon Pharmaceutical) containing 10% fetal calf serum and 500 μg/ml of geneticin (Life Tech Oriental). The suspension was diluted to give 10^4 cells/ml of the suspension, which was inoculated on 96 well plate (Becton Dickinson) to give geneticin resistant cells. The resulting geneticin resistant cells were cultivated in 96 well plate (Becton Dickinson), and cells expressing CCR5 were selected from the geneticin resistant cells. That is, in assay buffer (Ham's F12 medium containing 0.5% BSA and 20 mM HEPES (Wako Pure Chemical, pH7.2) to which was added 200 pM of [^125 I]-RANTES (Amersham) as ligand, binding reaction as carried out at room temperature for 40 minutes, and the buffer was washed with cooled PBS. To the buffer was added 50 μl/well of 1M NaOH, and the mixture was stirred. Radioactivity was determined with γ-counter to select CHO/CCR5 cells which specifically bind to the ligand.
The CHO/CCR5 were inoculated on 96 well microplate (5×10^4 cells/well) and cultivated for 24 hours. The medium was removed by means of suction, and to each well was added assay buffer containing Test Compound (1 μM) and then 100 pM of [^125 I]-RANTES (Amersham) as ligand. Binding assay was carried out at room temperature for 30 minutes, and assay buffer was removed by means of suction. Each well was washed twice with cooled PBS, and 200 μl of Microscint-20 (Packard Instrument, Inc.) was added to each well. Radio-activity was determined with Top-Count Micro Scintillation Counter (Packard Instrument, Inc.).
According to the method described above, inhibition rate of Test Compound (whose number is referred to in the following Examples) to CCR5 binding.

[2] = test system: HIV-1; experiment: Inhibitory Effect on HIV-1 Infection to MAGI^- CCR5 Cell; format: cell-based, HIV-1 BA-L; conditions: MAGI-CCR5 cells, 2 days
Experimental: The plasmid where β-galactosidase gene was ligated downstream of HIV-1 LTR was introduced into CD4 positive HeLa cell, to which human CCR5 was further introduced to obtain transformant MAGI^- CCR5. By using said transformant MAGI^- CCR5, degree of HIV-1 infection was calculated from β-galactosidase activity (blue color due to decomposition of 5-bromo-4-chloro-3-indolyl-β-D-galactopyranoside).
Specifically, MAGI-CCR5 cells were suspended in DMEM medium containing 10% serum to prepare 5×10^4 cells/ml suspension. To each well of 96 well plate was inoculated 200 μl of the suspension, and the cells were cultivated at 37° C. overnight. The medium was removed by means of suction, and to the residue was added 100 μl of the above medium containing 1.6μM of Test Compound 96 or 0.064 μM of Test Compound 248 and 100 μl of the above medium containing 300 PFU of HIV-1 BA-L cells. The cells were cultivated at 37° C. for 2 days. The medium was removed by means of suction. To the residue was added 200 μl of cell fixative (PBS containing 1% formaldehyde and 0.2% glutaraldehyde), and the mixture was allowed to stand at room temperature for 5 minutes and washed twice with PBS. […] The number of blue cells was counted by microscope and defined as the number of cells infected with HIV-1.

[3] = test system: HIV-1; experiment: Inhibitory Effect on HIV-1 Infection to Human PBMC; format: cell-based, HIV-1 BA-L; conditions: 7 days, p24 antigen ELISA
Experimental: From normal person human peripheral blood mononuclear cells (PBMC) were separated, and the cells were stimulated with 10 μg/ml of PHA (Phytohemaglutinin) and 20U/ml of interleukin-2 (IL-2) for 3 days. The cells were suspended in RPMI-1640 medium containing 20% serum to prepare 1×10^6 /ml suspension. To the suspension were infected HIV-1 BA-L cells (20 ng as an amount of p24 antigen), and viruses were absorbed at 37° C. for 2 hours. The cells were washed and suspended in RPMI-1640 medium containing 20% serum and IL-2 20 U/ml to prepare 1×10^5 /ml suspension. To the PBMC suspension was added the same amount of a solution which contains 2.0 μM of Test Compound 96 or 0.32 μM of Test Compound 248, and the cells were cultivated at 37° C. for 7 days in carbon dioxide gas incubator. The amount of p24 antigen in supernatant of the cultivated medium was determined by enzyme-linked immunosorbent assay (ELISA) and defined as degree of HIV-1 infection.

Structure (SMILES) | inhibition at 1 µM [1] [%] | also measured
CCOc1ccc(-c2ccc3c(c2)C=C(C(=O)Nc2ccc(C[N+](C)(C)C4CCOCC4)cc2)CCO3)cc1 [Compound 250, N-(4-(((7-(4-ethoxyphenyl)-2,3-dihydro-1-benzoxepin-4-yl)carbonyl)amino)benzyl)-N,N-dimethyl-N-(4-tetrahydropyranyl)ammonium chloride] | 96 | 
Cc1ccc(-c2ccc3c(c2)C=C(C(=O)Nc2ccc(C[N+]4(C)CCCCC4)cc2)CCO3)cc1 [Compound 97, 1-(N-(7-(4-methylphenyl)-2,3-dihydro-1-benzoxepin-4-carbonyl)-4-aminobenzyl)-1-methylpiperidinium chloride] |  | Inhibition Rate (%) to CCR5 binding [1]: 94%
Cc1ccc(-c2ccc3c(c2)C=C(C(=O)Nc2ccc(C[N+]4(C)CCCCC4)cc2)CCO3)cc1 [Compound 96, 1-(N-(7-(4-methylphenyl)-2,3-dihydro-1-benzoxepin-4carbonyl)-4-aminobenzyl)-1-methylpiperidinium iodide] | 93 | inhibition rate on HIV-1 infection ([2]; 100 μl medium containing 1.6 μM Test Compound 96 plus 100 μl medium with 300 PFU HIV-1 BA-L): 92%; inhibition rate on HIV-1 infection ([3]; same amount of solution containing 2.0 μM Test Compound 96 added): 96%
Cc1ccc(-c2ccc(/C=C/C(=O)Nc3ccc(CP4(=O)CCCCC4)cc3)s2)cc1 [Compound 209, (E)-N-(4-pentamethylenephosphorylmethylphenyl)-3-[5-(4-methylphenyl)-thiophen-2-yl]acrylic amide] | 80 | 
Cc1ccc(-c2ccc3c(c2)C=C(C(=O)Nc2ccc(C[N+](C)(C)C4CCC(=O)CC4)cc2)CCO3)cc1 [Compound 249, N,N-dimethyl-N-(4-(((7-(4-methylphenyl)-2,3-dihydro-1-benzoxepin-4-yl)carbonyl)amino)benzyl)-N-(4-oxocyclohexyl)ammoniumchloride] | 96 | 
Cc1ccc(-c2ccc3c(c2)C=C(C(=O)Nc2ccc(C[N+](C)(C)C4CCOCC4)cc2)CCC3)cc1 [Compound 248, N,N-dimethyl-N-(4-(((2-(4-methylphenyl)-6,7-dihydro-5H-benzocyclohepten-8-yl)carbonyl)amino)benzyl)-N-(4-tetrahydropyranyl)ammonium chloride] | 99 | inhibition rate on HIV-1 infection ([2]; 100 μl medium containing 0.064 μM Test Compound 248 plus 100 μl medium with 300 PFU HIV-1 BA-L): 100%; inhibition rate on HIV-1 infection ([3]; same amount of solution containing 0.32 μM Test Compound 248 added): 74%
Cc1ccc(-c2ccc3c(c2)C=C(C(=O)Nc2ccc(CN(C)C4CCOCC4)cc2)CCO3)cc1 [Compound 128, N-(4-(N-methyl-(N-tetrahydropyran-4-yl)aminomethyl)-phenyl)-7-(4-methylphenyl)-2,3-dihydro-1-benzoxepine-4-carboxamide] | 87 | 
CC(C)(C)c1ccc(-c2ccc3c(c2)C=C(C(=O)Nc2ccc(CP4(=O)CCCCC4)cc2)CCO3)cc1 [Compound 180, N-(4-(pentamethylene)phosphorylmethyl-phenyl)-7-(4-tert-butylphenyl)-2,3-dihydro-1-benzoxepine-4-carboxamide] | 99 | 
Cc1ccc(-c2ccc3c(c2)C=C(C(=O)Nc2ccc(CP4(=O)OCCCO4)cc2)CCO3)cc1 [Reference Example 51, 2-(4-(7-(4-methylphenyl)-2,3-dihydro-1-benzoxepin-4-carbonylamino)benzyl)-1,3,2-dioxaphosphorinane-2-oxide] | 73 | 
Cc1ccc(-c2ccc3c(c2)C=C(C(=O)Nc2ccc(C[N+]4(C)CCCCC4)cc2)CCC3)cc1 [Compound 92, 1-(N-(2-(4-methylphenyl)-6,7-dihydro-5H-benzocycloheptene-8-carbonyl)-4-aminobenzyl)-1-methylpiperidinium iodide] | 100 | 
Cc1ccc(-c2ccc3c(c2)C=C(C(=O)Nc2ccc(C[N+]4(C)CCCCC4)cc2)CC3)cc1 [Compound 16, 1-methyl-1-[4-[7-(4-methylphenyl)-3,4-dihydronaphthalene-2-carboxamido]benzyl]piperidinium iodide] | 88 | 
Cc1ccc(-c2ccc3c(c2)C=C(C(=O)Nc2ccc(CC[N+]4(C)CCCCC4)cc2)CCO3)cc1 [Compound 100, N-((7-(4-methylphenyl)-2,3-dihydro-1-benzoxepin-4-carbonyl)-2-(4-aminophenyl)ethyl)-N-methylpiperidinium iodide] | 100 | 
